Test results: patent US10231939B2, “Hydroxytyrosol and oleuropein compositions for induction of DNA damage, cell death and LSD1 inhibition” (priority 2012, dated 2019)

Legend:
[1] = test system: K562 cells; assay: Total Antioxidant Capacity Assay, K562; type: cell-based, human; settings: 50 μM hydroxytyrosol or Formulation 2 (4× diluted), 24 hours
[2] = test system: human keratinocytes; assay: γH2AX immunofluorescence, keratinocytes after γ-radiation; type: cell-based; settings: pre-treatment 24 hours
Protocol: Keratinocytes pre-treated with Formulations 1, 2 and 3 (Table 9) for 24 hours prior to exposure to 0, 2 and 12 Gy (137Cs) and incubated for a further hour; 37° C., 5% (v/v) CO2, before staining for γH2AX as previously described.

[3] = test system: PBMC; assay: Total Antioxidant Capacity Assay, PBMC; type: cell-based, human; settings: 50 μM hydroxytyrosol, 200 μM Oleuropein or Formulation 2 (dilution factor=4), 24 hours
Protocol: Human peripheral blood mononuclear cells were seeded at 1×10^6 cells per well in 12 well culture plates (Nalge Nunc) with Formulation 2 (dilution factor=4) (Table 9), 50 μM hydroxytyrosol or 200 μM Oleuropein for 24 hours; 37° C., 5% (v/v) CO2. In separate experiments, cells were treated with 30 mM glucose for 72 hours prior to 24 hours incubation in fresh media and then a 24 hour incubation with the hydroxytyrosol-containing formulation 2 (dilution factor=4); 37° C., 5% (v/v) CO2. Experiments to determine the protection of cells following doxorubicin treatment involved pre-treatment with Formulation 2 (dilution factor=4) for 24 hours prior to 1 hour incubation with 1 μM doxorubicin. Cells were washed and incubated for a further 24 hours in fresh media; 37° C., 5% (v/v) CO2. Cells were harvested for their total protein by centrifugation at 1000×g for 10 minutes at 4° C. to pellet cell suspensions. […] Cell lysates were analyzed for their total antioxidant capacity. […] The sum of endogenous and food-derived antioxidants in the sample represented the total antioxidant activity of the cells and was measured by their ability to inhibit the oxidation of ABTS (2,2′-Azino-di-[3-ethylbenzthiazoline sulphonate]) in the presence of metmyoglobin using the Perkin Elmer Multi-plate reader (λem=750 nm). […]

[4] = target: LSD1 (Homo sapiens, UniProt O60341); assay: LSD1 Demethylase Profiling (HRP/Amplex Red); type: biochemical; settings: for LSD1 inhibition (in words): 10-dose, 3-fold serial dilution starting at 100 μM, 10 μM Histone H3 (1-21) K4me2 peptide
Protocol: (§1) Formulation 2 (4× diluted) was tested against positive control tranylcypromine for LSD1 inhibition activity. […] The production of FAD-dependent H2O2 as a result of demethylase activity of LSD1 is measured by coupling with HRP and Amplex Red and fluorescence was measured using the EnVision plate reader at Ex/Em=535/590 nm. 10 μM Histone H3 (1-21) K4me2 peptide was used as the standard substrate. Data was represented at the percentage of LSD1 enzymatic activity inhibition relative to DMSO controls and a curve fit for the control compound.
as §1, with “Hydroxytyrosol” for “Formulation 2 (4× diluted)”

[5] = Cell viability (Cell-Titer Blue), PBMC; type: cell-based; settings: human, PBMC (peripheral blood mononuclear cells), hydroxytyrosol 20 or 100 μM
Protocol: Cells were seeded at densities of 7,500 cells/in black flat bottom 96-well plates (Nalge Nunc, Penfield, N.Y., USA) and treated with a dose response of hydroxytyrosol (0-200 μM), oleuropein (0-800 μM), tyrosol (0-1000 μM) and homovanilic acid (0-1000 μM) for 24 hours at 37° C., 5% (v/v) CO2. Cell viability was determined after 24 hour exposure to hydroxytyrosol and measured using the Cell-Titer Blue® Assay kit (Promega, Madison, Wis., USA) according to the manufacturer's instructions. Cell-Titer Blue reagent was added to each well and incubated for 4 hours at 37° C., 5% CO2, before reading fluorescence intensity (550 nm excitation; 615 nm emission) using the Perkin Elmer Victor3 (Perkin Elmer, MA, USA) multi-label plate reader.

OCCc1ccc(O)c(O)c1 [HT, 4-(2-hydroxyethyl)-1,2-benzenediol]
total antioxidant capacity [1]: deplete total antioxidant capacity
radiation-induced DNA damage [2]: protects
total antioxidant capacity ([3]; listed as Hydroxytyrosol): significantly increased the total antioxidant
total antioxidant capacity ([3]; listed as hydroxytyrosol): enhance the antioxidant capacity
LSD1 inhibition (in words) ([4]; listed as Hydroxytyrosol): Hydroxytyrosol is a potent
LSD1 inhibition (in words) ([4]; listed as hydroxytyrosol): potent inhibitor of LSD1
LSD1 inhibition compared with tranylcypromine ([4]; positive control tranylcypromine): more effective LSD1 inhibitor against tranylcypromine
viability at 24 h [5]: 100%
